From patent publication US20160237059A1, “HETEROCYCLIC SUBSTITUTED TRIFLUOROMETHYL PYRIMIDINONES AND THEIR USE” (BAYER PHARMA AKTIENGESELLSCHAFT, priority 2013, published 2016)

Tests used:
human CCR2 = target: T1, human CCR2 (Homo sapiens, UniProt P41597); assay: Functional Ca2+ release test (B-1); format: cell-based; settings: Chem-1 cell line transfected with human CCR2; 50% inhibition of the MCP-1 effect, MCP-1 at EC50 (about 5 nM); in some cases means of several determinations
T1 construct: host or cells: Chem-1 cell line
T1 sequence (P41597 1-360 isoform P41597-2): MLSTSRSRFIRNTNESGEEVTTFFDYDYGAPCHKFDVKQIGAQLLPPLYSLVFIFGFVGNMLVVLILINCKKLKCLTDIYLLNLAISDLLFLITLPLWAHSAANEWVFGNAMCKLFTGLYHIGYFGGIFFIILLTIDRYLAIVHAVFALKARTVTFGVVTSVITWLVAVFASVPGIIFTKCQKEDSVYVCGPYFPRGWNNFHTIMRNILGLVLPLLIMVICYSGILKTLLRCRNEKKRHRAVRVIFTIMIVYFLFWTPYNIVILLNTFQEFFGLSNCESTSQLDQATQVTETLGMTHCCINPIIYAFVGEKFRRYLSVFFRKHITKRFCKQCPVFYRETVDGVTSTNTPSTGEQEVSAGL
Procedure, shortened: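 Chem-1 cells expressing human CCR2, loaded with Fluo-4 for 60 min at 37° C, were preincubated 10 min with compound (10-point, 1:3.16 dilutions), then stimulated with MCP-1 at its predetermined EC50 (about 5 nM). Ca2+ release was monitored for 120 s. IC50 came from a 4-parameter Hill fit.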

murine CCR2 = target: T2, murine CCR2 (Mus musculus, UniProt P51683); assay: Functional β-arrestin recruiting test with human MCP-1 (B-2a); format: cell-based; settings: U2OS β-arrestin cell line transfected with murine CCR2; agonist human MCP-1 at EC50 (about 3 nM); in some cases means of several determinations
T2 construct: host or cells: U2OS β-arrestin cell line
Procedure, shortened: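 Antagonist mode in U2OS cells expressing murine CCR2, read by PathHunter β-galactosidase complementation luminescence. Cells pre-incubated 10 min with 10-point compound dilutions (1:3.16 steps), then stimulated with human MCP-1 at its EC50 (usually about 3 nM) for 90 min at 37° C.; IC50 from 4-parameter logistic fit.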

T2 sequence (P51683 whole entry): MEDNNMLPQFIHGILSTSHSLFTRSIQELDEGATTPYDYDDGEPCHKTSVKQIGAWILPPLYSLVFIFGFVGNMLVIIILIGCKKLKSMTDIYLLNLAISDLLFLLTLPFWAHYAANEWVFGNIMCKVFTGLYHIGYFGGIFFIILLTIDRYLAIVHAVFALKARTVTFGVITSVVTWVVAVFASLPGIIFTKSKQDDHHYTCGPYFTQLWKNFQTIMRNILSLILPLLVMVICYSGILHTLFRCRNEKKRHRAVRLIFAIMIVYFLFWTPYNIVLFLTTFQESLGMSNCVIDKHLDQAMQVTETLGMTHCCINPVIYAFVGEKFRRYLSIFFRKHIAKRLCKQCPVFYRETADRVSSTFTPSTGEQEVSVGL

Row | IC50 (human CCR2) | IC50 (murine CCR2) | Compound
1 | 31 nM | 96 nM | N=c1[nH]c(-c2nc(C(F)(F)F)c(Oc3ccc(Cl)c(Cl)c3)c(=O)[nH]2)no1 [Example 85, 5-(3,4-Dichlorophenoxy)-2-(5-imino-4,5-dihydro-1,2,4-oxadiazol-3-yl)-6-(trifluoromethyl)pyrimidin-4(3H)-one]
2 | 12 nM | 380 nM | O=c1[nH]c(-c2cccc(Cl)n2)nc(C(F)(F)F)c1Cc1ccc(Cl)c(Cl)c1 [Example 20, 2-(6-chloropyridin-2-yl)-5-(3,4-dichlorobenzyl)-6-(trifluoromethyl)pyrimidin-4(3H)-one]
3 | 100 nM | 490 nM | O=c1[nH]c(Cc2ccsc2)nc(C(F)(F)F)c1Cc1ccc(Cl)c(Cl)c1 [Example 97, 5-(3,4-dichlorobenzyl)-2-(3-thienylmethyl)-6-(trifluoromethyl)pyrimidin-4(3H)-one]
4 | 19 nM | 150 nM | O=c1[nH]c(-c2noc(C3CC3)n2)nc(C(F)(F)F)c1Oc1ccc(Cl)c(Cl)c1 [Example 82, 2-(5-cyclopropyl-1,2,4-oxadiazol-3-yl)-5-(3,4-dichlorophenoxy)-6-(trifluoromethyl)pyrimidin-4(3H)-one x N,N-diisopropylethylamine]
5 | 400 nM | 1000 nM | O=c1[nH]c(CC2CCOCC2)nc(C(F)(F)F)c1Cc1ccc(Cl)c(Cl)c1 [Example 171]
6 | 14 nM | 54 nM | CC1(C)NC(c2nc(C(F)(F)F)c(Oc3ccc(Cl)c(C(F)(F)F)c3)c(=O)[nH]2)=NO1 [Example 87, 5-[4-Chloro-3-(trifluoromethyl)phenoxy]-2-(5,5-dimethyl-4,5-dihydro-1,2,4-oxadiazol-3-yl)-6-(trifluoromethyl)pyrimidin-4(3H)-one]
7 | 120 nM | 460 nM | O=c1[nH]c(Cc2cccnc2)nc(C(F)(F)F)c1Cc1ccc(Cl)c(Cl)c1 [Example 98, 5-(3,4-dichlorobenzyl)-2-(pyridin-3-ylmethyl)-6-(trifluoromethyl)pyrimidin-4(3H)-one]
8 | 130 nM | 1100 nM | Nc1nc[nH]c1-c1nc(C(F)(F)F)c(Oc2ccc(Cl)c(C(F)(F)F)c2)c(=O)[nH]1 [Example 69, 2-(4-amino-1H-imidazol-5-yl)-5-[4-chloro-3-(trifluoromethyl)phenoxy]-6-(trifluoromethyl)pyrimidin-4(3H)-one]
9 | 28 nM | 230 nM | O=c1[nH]c(-c2ncc(C(F)(F)F)cc2Cl)nc(C(F)(F)F)c1Cc1ccc(Cl)c(Cl)c1 [Example 21, 2-[3-chloro-5-(trifluoromethyl)pyridin-2-yl]-5-(3,4-dichlorobenzyl)-6-(trifluoromethyl)pyrimidin-4(3H)-one]
10 | 140 nM | 530 nM | O=c1[nH]c(-c2cccc(O)n2)nc(C(F)(F)F)c1Oc1ccc(Cl)c(C(F)(F)F)c1 [Example 30, 5-[4-chloro-3-(trifluoromethyl)phenoxy]-2-(6-hydroxypyridin-2-yl)-6-(trifluoromethyl)pyrimidin-4(3H)-one]
11 | 45 nM | 460 nM | CCOC(=O)C1CCN(c2nc(C(F)(F)F)c(Cc3ccc(Cl)c(Cl)c3)c(=O)[nH]2)CC1 [Example 176, ethyl 1-[5-(3,4-dichlorobenzyl)-6-oxo-4-(trifluoromethyl)-1,6-dihydropyrimidin-2-yl]piperidine-4-carboxylate]
12 | 430 nM | 11000 nM | COc1cccc(Nc2nc(C(F)(F)F)c(Oc3ccc(Cl)c(Cl)c3)c(=O)[nH]2)n1 [Example 101, 5-(3,4-dichlorophenoxy)-2-[(6-methoxypyridin-2-yl)amino]-6-(trifluoromethyl)pyrimidin-4(3H)-one]
13 | 33 nM | 790 nM | Cc1cccc(-c2nc(C(F)(F)F)c(Cc3ccc(Cl)c(Cl)c3)c(=O)[nH]2)n1 [Example 25, 5-(3,4-dichlorobenzyl)-2-(6-methylpyridin-2-yl)-6-(trifluoromethyl)pyrimidin-4(3H)-one]
14 | 41 nM | 380 nM | O=c1[nH]c(Nc2cn[nH]c2)nc(C(F)(F)F)c1Cc1ccc(Cl)c(C(F)(F)F)c1 [Example 105]
